# According to patent US20250295083A1, “METHODS FOR PRODUCING AN ORGANOGENIC CALLUS AND COMPOSITIONS, SYSTEMS, AND METHODS RELATING THERETO” (Pairwise Plants Services, Inc., priority 2022, published 2025):
# Entries after “also recorded” stand apart in the source; their conditions may differ.
# Test system: cross sections of the stems (including nodes) of the lateral shoots, cherry variety Sweetheart
# Assay: Callus induction from cut stem cross sections (including nodes) cultured on media
# Assay type: cell-based, sweet cherry (Prunus avium)
# Details: 24° C., 8 weeks in the dark
# Procedure: The cherry variety, Sweetheart, was grown in a greenhouse and stem tissue was collected. The stem tissue was grown in vitro on propagation media (Table 1) at 25° C., 40 μM light with a 16 hour photoperiod until lateral shoots began to emerge. The stem tissue with lateral shoots were grown on the propagation media for no more than 10 days and were collected by day 10.
# Leaves and petioles were removed from the lateral shoots and cross sections of the stems (including nodes) of the lateral shoots were cut. The cross sections of the stems were about 0.5 mm wide. For the purpose of inducing callus formation, the cut material was then placed onto either Garin media as described in Garin, E., et al. (1997). Plant cell, tissue and organ culture, 48(2), 83-91, media comprising 2 mg TDZ, media comprising 5 mg TDZ, or media comprising 10 mg TDZ and cultured at 24° C. for 8 weeks in the dark. The plant material was moved to fresh media approximately every three weeks. If endophyte growth was noted as the experiment was progressing, then the media was supplemented with 200 mg/L cefoxatime. Approximately 149 nodes were processed and cultured on the media containing 5 mg TDZ. Approximately 149 nodes were processed and cultured on the media containing 10 mg TDZ. Approximately 324 nodes were processed and cultured on the Garin media. The lateral shoots were cultured for a total of 8 weeks on the medias described above and then observed for the formation of callus.
compound,measurement,setting,value
"O=C(Nc1ccccc1)Nc1cnns1 [TDZ, thidiazuron]",Observations (callus formation),media comprising 2 mg TDZ,Small amount of callus formed
same,Observations (callus formation),media comprising 5 mg TDZ,Moderate amount of callus but much
same,Observations (callus formation),media comprising 10 mg TDZ (10 mg/L),many more of the tissues developing callus; also recorded: along with considerably more mass being
same,tissues forming callus,media comprising 10 mg TDZ,Nearly 100% of tissues forming callus
